# According to patent publication US20190240225A1, “COMBINATION OF A BCL-2 INHIBITOR AND A MCL-1 INHIBITOR, USES AND PHARMACEUTICAL COMPOSITIONS THEREOF” (LES LABORATOIRES SERVIER, priority 2016, published 2019):
# Like-named read-outs stand apart in the source and are kept apart here.
# Columns and labels:
# Assay type in all cases: cell-based
# Toledo = test: CellTiterGlo viability, DLBCL cell line; details: for Max Inh / IC50: Toledo, single agent, 2 days; for IC50: read-out: Abs IC50
# Method: (§5) In addition, all media contained penicillin (100 IU/ml), streptomycin (100 μg/ml) and L-glutamine (2 mM). Unless otherwise mentioned, culture media and supplements were from Amimed/Bioconcept (Allschwil, Switzerland).
# (§6) Cell lines were cultured at 37° C. in a humidified atmosphere containing 5% CO2 and expanded in T-75 flasks. In all cases cells were thawed from frozen stocks, expanded through ≥1 passage using appropriate dilutions, counted and assessed for viability using a CASY cell counter (Omni Life Science, Bremen, Germany) prior to plating 25 ul/well at the densities indicated in Table 1 into 384-well plates (Corning). All cell lines were determined to be free of mycoplasma contamination by PCR assay performed at Idexx Radii (Columbia, Mo., USA) and misidentification ruled out by assessment of a panel of 48 Small Nucleotide Polymorphisms (SNPs) at Asuragen (Austin, Tex., USA) or in-house.
# (§7) Stock solutions of compounds were prepared at a concentration of 10 mM in DMSO (Sigma) and stored at −20° C. Where necessary to afford a full dose-response curve, the stock solutions were pre-diluted in DMSO to 1′000-fold the desired start concentration (see Table 2). On the day after cell seeding, eight 2.5-fold serial dilutions of each compound were dispensed, either individually or in all possible permutations in a checkerboard fashion, directly into the cell assay plates using a non-contact 300D Digital Dispenser (ILCAN, Mannedorf, Switzerland) as outlined in FIG. 4. The final concentration of DMSO was 0.2% in all wells.
# (§8) Effects of the single agents as well as their checkerboard combinations on cell viability were assessed after 2 days of incubation at 37° C./5% CO2 by quantification of cellular ATP levels using CellTiterGlo (Promega, Madison, Wis., USA) at 25 μL reagent/well and n=2 replicate plates per condition. Luminescence was quantified on a M1000 multipurpose platereader (ILCAN, Mannedorf, Switzerland). The number/viability of cells at time of compound addition was likewise assessed and used to assess the degree of the population doubling time of a particular cell line.
# (§9) Single agent IC50s were calculated using standard four-parametric curve fitting. […] All calculations were performed using the Combination Analysis Module in-house software. IC50 are defined as the compound concentration at which the CTG signal is reduced to 50% of that measured for the vehicle (DMSO) control.
# SU-DHL-8 = test: CellTiterGlo viability, DLBCL cell line; details: single agent, 2 days; for IC50: read-out: Abs IC50
# Method: as §5, §6, §7, §8
# (§10) Single agent IC50s were calculated using standard four-parametric curve fitting. […] IC50 are defined as the compound concentration at which the CTG signal is reduced to 50% of that measured for the vehicle (DMSO) control.
# KARPAS-422 = test: CellTiterGlo viability, DLBCL cell line; details: single agent, 2 days; for IC50: read-out: Abs IC50
# Method: as §5
# Cell lines were cultured at 37° C. in a humidified atmosphere containing 5% CO2 and expanded in T-75 flasks. In all cases cells were thawed from frozen stocks, expanded through ≥1 passage using appropriate dilutions, counted and assessed for viability using a CASY cell counter (Omni Life Science, Bremen, Germany) prior to plating 25 ul/well at the densities indicated in Table 1 into 384-well plates (Corning).
# as §7, §8, §10
# TANOUE = test: CellTiterGlo viability, B-ALL cell line; details: single agent, 72 h
# Method: (§1) In addition, all media contained penicillin (100 IU/ml), streptomycin (100 μg/ml) and L-glutamine (2 mM). Cell lines were cultured at 37° C. in a humidified atmosphere containing 5% CO2 and expanded in T-150 flasks. In all cases cells were thawed from frozen stocks, expanded through ≥1 passage using appropriate dilutions, counted and assessed for viability using a CASY cell counter prior to plating 150 ul/well at the densities indicated in Table 9 into 96-well plates. All cell lines were determined to be free of mycoplasma contamination in-house.
# (§2) Stock solutions of compounds were prepared at a concentration of 5 mM in DMSO and stored at −20° C. In order to analyse the activity of the compounds as single agents, cells were seeded and treated with nine 2-fold serial dilutions of each compound dispensed individually directly into the cell assay plates. Effects of the compounds on cell viability were assessed after 3 days of incubation at 37° C./5% CO2 by quantification of cellular ATP levels using CellTiterGlo at 75 μL reagent/well. All the conditions were tested in triplicates. Luminescence was quantified on a multipurpose plate reader. Single agent IC50s were calculated using standard four-parametric curve fitting. IC50 is defined as the compound concentration at which the CTG signal is reduced to 50% of that measured for the vehicle (DMSO) control.
# (§3) In order to analyse the activity of the compounds in combination, cells were seeded and treated with seven or eight 3.16-fold serial dilutions of each compound dispensed, either individually or in all possible permutations in a checkerboard fashion, directly into the cell assay plates as indicated in FIG. 1. Effects of the single agents as well as their checkerboard combinations on cell viability were assessed after 3 days of incubation at 37° C./5% CO2 by quantification of cellular ATP levels using CellTiterGlo at 75 μL reagent/well. For B-ALL cell lines, two independent experiments, each one performed in duplicates, were performed. For T-ALL cell lines, one experiment performed in triplicate was performed. Luminescence was quantified on a multipurpose plate reader.
# (§4) Potential synergistic interactions between compound combinations were assessed using the Excess Inhibition 2D matrix according to the Loewe additivity model and are reported as Synergy Score (Lehar et al, Nat Biotechnol. 2009 July; 27(7): 659-666). All calculations were performed using Chalice TM Bioinformatics Software available in Horizon website. The doubling time indicated in Table 9 is the mean of the doubling time obtained in the different passages (in T-150 flasks) performed from the thawing of the cells to their seeding in the 96-well plates.
# Kasumi-2 = test: CellTiterGlo viability, B-ALL cell line; details: single agent, 72 h
# Method: as §1, §2, §3, §4
# BALL-1 = test: CellTiterGlo viability, B-ALL cell line; details: single agent, 72 h
# Method: as §1, §2, §3, §4
# TOM-1 = test: CellTiterGlo viability, B-ALL cell line; details: single agent, 72 h
# Method: as §1, §2, §3, §4
# RS4;11 = test: CellTiterGlo viability, B-ALL cell line; details: single agent, 72 h
# Method: as §1, §2, §3, §4
# NALM-21 = test: CellTiterGlo viability, B-ALL cell line; details: single agent, 72 h
# Method: as §1, §2, §3, §4
# SUP-B15 = test: CellTiterGlo viability, B-ALL cell line; details: single agent, 72 h
# Method: as §1, §2, §3, §4
# U-937 = test: CellTiterGlo viability, DLBCL cell line; details: single agent, 2 days; for IC50: read-out: Abs IC50
# Method: as §5, §6, §7, §8, §10
# NALM-6 = test: CellTiterGlo viability, B-ALL cell line; details: for IC50: NALM-6, B-ALL, single agent, 72 h; for growth inhibition: NALM-6 cells, fourth lowest concentration tested (FIG. 11, top left panel)
# Method: In addition, all media contained penicillin (100 IU/ml), streptomycin (100 μg/ml) and L-glutamine (2 mM). […] All cell lines were determined to be free of mycoplasma contamination in-house. Stock solutions of compounds were prepared at a concentration of 5 mM in DMSO and stored at −20° C. In order to analyse the activity of the compounds as single agents, cells were seeded and treated with nine 2-fold serial dilutions of each compound dispensed individually directly into the cell assay plates. […] All the conditions were tested in triplicates. Luminescence was quantified on a multipurpose plate reader. Single agent IC50s were calculated using standard four-parametric curve fitting. […] In order to analyse the activity of the compounds in combination, cells were seeded and treated with seven or eight 3.16-fold serial dilutions of each compound dispensed, either individually or in all possible permutations in a checkerboard fashion, directly into the cell assay plates as indicated in FIG. 1. […] For B-ALL cell lines, two independent experiments, each one performed in duplicates, were performed. For T-ALL cell lines, one experiment performed in triplicate was performed. Luminescence was quantified on a multipurpose plate reader. […] All calculations were performed using Chalice TM Bioinformatics Software available in Horizon website.
# DOHH-2 = test: CellTiterGlo viability, DLBCL cell line; details: single agent, 2 days; for IC50: read-out: Abs IC50
# Method: as §5, §6, §7, §8, §9
# J.RT3 T3.5 = test: CellTiterGlo viability, T-ALL cell line; details: single agent, 48 h
# Method: as §1
# as §2, with “Effects of the compounds on cell viability were assessed after 3 days of incubation at 37° C./5% CO2 by quantification of cellular ATP levels using CellTiterGlo at 75 μL reagent/well.” left out
# as §3, with “Effects of the single agents as well as their checkerboard combinations on cell viability were assessed after 3 days of incubation at 37° C./5% CO2 by quantification of cellular ATP levels using CellTiterGlo at 75 μL reagent/well.” left out
# as §4
# CCRF-CEM = test: CellTiterGlo viability, T-ALL cell line; details: single agent, 48 h
# Method: as §1
# as §2, with “Effects of the compounds on cell viability were assessed after 3 days of incubation at 37° C./5% CO2 by quantification of cellular ATP levels using CellTiterGlo at 75 μL reagent/well.” left out
# as §3, with “Effects of the single agents as well as their checkerboard combinations on cell viability were assessed after 3 days of incubation at 37° C./5% CO2 by quantification of cellular ATP levels using CellTiterGlo at 75 μL reagent/well.” left out
# as §4
compound,measurement,setting,value
"COc1ccccc1-c1nccc(COc2ccccc2C[C@@H](Oc2ncnc3sc(-c4ccc(F)cc4)c(-c4ccc(OCCN5CCN(C)CC5)c(Cl)c4C)c23)C(=O)O)n1 [Compound 3, (2R)-2-{[(5Sa)-5-{3-chloro-2-methyl-4-[2-(4-methylpiperazin-1-yl)ethoxy]phenyl}-6-(4-fluorophenyl)thieno[2,3-d]pyrimidin-4-yl]oxy}-3-(2-{[2-(2-methoxyphenyl)pyrimidin-4-yl]methoxy}phenyl)propanoic acid]",growth inhibition,"Toledo; Toledo cells, Compound 3 at the highest concentration tested, combination with the second lowest concentration of Compound 1 (FIG. 4B)",46%
same,Max Inh,Toledo,45.8%
same,IC50,Toledo,≥ 1 µM
same,Max Inh,SU-DHL-8,95.6%
same,IC50,SU-DHL-8,0.305 µM
same,Max Inh,KARPAS-422,98.3%
same,IC50,KARPAS-422,0.00214 µM
same,IC50,TANOUE,6.54 µM
same,IC50,Kasumi-2,0.03 µM
same,IC50,BALL-1,0.063 µM
same,IC50,TOM-1,0.024 µM
same,IC50,RS4;11,0.079 µM
same,IC50,NALM-21,0.012 µM
same,IC50,SUP-B15,0.078 µM
same,Max Inh,U-937,97.1%
same,IC50,U-937,0.00832 µM
same,IC50,NALM-6,0.12 µM
same,growth inhibition,NALM-6,6%
same,Max Inh,DOHH-2,98.3%
same,IC50,DOHH-2,0.00122 µM
same,IC50,J.RT3 T3.5,0.063 µM
same,IC50,CCRF-CEM,0.047 µM
"Cl.O=C(c1cc(-c2cc3c(cc2C(=O)N2Cc4ccccc4C[C@H]2CN2CCOCC2)OCO3)n2c1CCCC2)N(c1ccccc1)c1ccc(O)cc1 [Compound 1, HCl, N-(4-hydroxyphenyl)-3-{6-[((3S)-3-(4-morpholinylmethyl)-3,4-dihydro-2(1H)-isoquinolinyl)carbonyl]-1,3-benzodioxol-5-yl}-N-phenyl-5,6,7,8-tetrahydro-1-indolizine carboxamide hydrochloride]",IC50,"Toledo; Homo sapiens, 48 h",0.137 µM
same,Max Inh,Toledo,101.9%
same,IC50,"SU-DHL-8; Homo sapiens, 48 h",≥ 10 µM
same,Max Inh,SU-DHL-8,28.7%
same,IC50,"KARPAS-422; Homo sapiens, 48 h",2.18 µM
same,Max Inh,KARPAS-422,90.9%
same,IC50,TANOUE,17 µM
same,IC50,Kasumi-2,0.209 µM
same,IC50,BALL-1; Homo sapiens,0.019 µM
same,IC50,TOM-1,0.019 µM
same,IC50,RS4;11; Homo sapiens,0.02 µM
same,IC50,NALM-21,0.095 µM
same,IC50,SUP-B15; Homo sapiens,0.025 µM
same,IC50,"U-937; Homo sapiens, 48 h",6.83 µM
same,Max Inh,U-937,62.1%
same,IC50,NALM-6; Homo sapiens,3.63 µM
same,growth inhibition,NALM-6,8%
same,IC50,"DOHH-2; Homo sapiens, 48 h",0.156 µM
same,Max Inh,DOHH-2,101.9%
same,IC50,J.RT3 T3.5; Homo sapiens,10 µM
same,IC50,CCRF-CEM; Homo sapiens,7.5 µM
